{"source": "patent US12281363B2", "about": "“Methods for detecting antiviral-drug resistant virus” (Secretary of State for Health and Social Care, priority 2018, dated 2025)", "system": "HSV-1", "assay": "Plaque reduction assay, HSV-1 clinical isolates on Vero cells", "format": "cell-based", "details": "Human alphaherpesvirus 1, Vero", "excerpt": "Viral isolates were used to infect a sub-confluent monolayer of Vero cells at a concentration of 75 or 50 plaque forming units (PFU) per well for HSV-1 and HSV-2, respectively. […] CMC medium typically used to create a semisolid interface and prevents indiscrimate viral spreading. Other materials (e.g. agar) may also be used to create this interface.\nCells were fixed with 10% formalin and stained with crystal violet before enumeration of the plaques (microscopic observation or use of fluorescent antibodies for detection is also suitable). The data obtained from these experiments were then expressed as percent inhibition of viral infectivity relative to the no drug control.\nDefinitions of phenotypic drug susceptibility classification as sensitive or resistant were as follows: ACV, <3 μM or >40 μM; PCV, <10 μM or >40 μM; CDV, <24 μM or >30 μM; FOS, <250 μM or >400 μM; and ACV, <6.5 μM or >40 μM; PCV, <38 μM or >40 μM; FOS, <250 μM or >400 μM for HSV-1 and HSV-2, respectively. Any IC50 values falling in between these sensitive and resistant cut-offs were reported as intermediate resistance.\nThe phenotype (i.e. reactivity to a drug) of the virus was characterised by the plaque reduction assay as described above.", "note": "Where two headings read alike, the source gives them in different places."}
{"smiles": "Nc1nc2c(ncn2COCCO)c(=O)[nH]1", "note": "[Aciclovir, acyclovir]", "values": [{"measurement": "IC50", "setting": "72 h, isolate HPG053, HSV-1 pol L802R + A834S (2405T>G, 2500G>T), also TK R176W, read-out: Drug susceptibility (IC50 value)", "value": "> 40", "unit": "µM"}, {"measurement": "IC50", "setting": "isolate HPG002, HSV-1 pol E992K (2974G>A), also TK insert (G) nt 430-436, pol A1169T, read-out: Drug susceptibility (IC50 value)", "value": 21.6, "unit": "µM"}, {"measurement": "IC50", "setting": "isolate HPG003, HSV-1 TK Y172S (515A>C), read-out: Drug susceptibility (IC50 value)", "value": 28, "unit": "µM"}, {"measurement": "IC50", "setting": "isolate HPG005, HSV-1 TK A37V (110C>T), read-out: Drug susceptibility (IC50 value)", "value": 1.46, "unit": "µM"}, {"measurement": "IC50", "setting": "isolate HPG008, HSV-1 TK V204G (611T>G), read-out: Drug susceptibility (IC50 value)", "value": 22.5, "unit": "µM"}, {"measurement": "IC50", "setting": "isolate HPG009, HSV-1 pol E992K (2974G>A), also pol A1169T, read-out: Drug susceptibility (IC50 value)", "value": 1.3, "unit": "µM"}, {"measurement": "IC50", "setting": "isolate HPG010, HSV-1 TK Q125* (373C>T), read-out: Drug susceptibility (IC50 value)", "value": 9.21, "unit": "µM"}, {"measurement": "IC50", "setting": "isolate HPG011, HSV-1 TK Q125* (373C>T), read-out: Drug susceptibility (IC50 value)", "value": 13.8, "unit": "µM"}, {"measurement": "IC50", "setting": "isolate HPG013, HSV-1 TK M121I (363G>A), read-out: Drug susceptibility (IC50 value)", "value": 18.8, "unit": "µM"}, {"measurement": "IC50", "setting": "isolate HPG013, HSV-1 pol D83A (248A>C), also TK M121I, pol A1169T, read-out: Drug susceptibility (IC50 value)", "value": 18.8, "unit": "µM"}, {"measurement": "IC50", "setting": "isolate HPG014, HSV-1 pol A1115T (3343G>A), read-out: Drug susceptibility (IC50 value)", "value": 1.41, "unit": "µM"}, {"measurement": "IC50", "setting": "isolate HPG014, HSV-1 pol R993C (2977C>T), read-out: Drug susceptibility (IC50 value)", "value": 1.41, "unit": "µM"}, {"measurement": "IC50", "setting": "isolate HPG014, HSV-1 pol T54A (160A>G), read-out: Drug susceptibility (IC50 value)", "value": 1.41, "unit": "µM"}, {"measurement": "IC50", "setting": "isolate HPG015, HSV-1 pol 966stop or F965_I966insF (2892_2893insT to 2895_2896insT), read-out: Drug susceptibility (IC50 value)", "value": 2.4, "unit": "µM"}, {"measurement": "IC50", "setting": "isolate HPG018, HSV-1 TK frameshift (881delC to 885delC), read-out: Drug susceptibility (IC50 value)", "value": 24.7, "unit": "µM"}, {"measurement": "IC50", "setting": "isolate HPG018, HSV-1 pol P1199T (3595C>A), also TK deletion (C) nt 881-885, pol A1169T, read-out: Drug susceptibility (IC50 value)", "value": 24.7, "unit": "µM"}, {"measurement": "IC50", "setting": "isolate HPG019, HSV-1 pol K750T (2249A>C), also TK deletion (G) nt 430-436, pol A1169T, read-out: Drug susceptibility (IC50 value)", "value": "> 40", "unit": "µM"}, {"measurement": "IC50", "setting": "isolate HPG020, HSV-1 pol S911N (2732G>A), also pol A1169T, read-out: Drug susceptibility (IC50 value)", "value": 0.56, "unit": "µM"}, {"measurement": "IC50", "setting": "isolate HPG021, HSV-1 pol R681Q (2042G>A), also TK deletion (G) nt 430-436, read-out: Drug susceptibility (IC50 value)", "value": "> 40", "unit": "µM"}, {"measurement": "IC50", "setting": "isolate HPG021, HSV-1 pol T839A (2515A>G), also TK deletion (G) nt 430-436, read-out: Drug susceptibility (IC50 value)", "value": "> 40", "unit": "µM"}, {"measurement": "IC50", "setting": "isolate HPG025, HSV-1 pol E850Q (2548G>C), also TK R216C, read-out: Drug susceptibility (IC50 value)", "value": 22.2, "unit": "µM"}, {"measurement": "IC50", "setting": "isolate HPG026, HSV-1 pol E850Q (2548G>C), also TK R216C, pol A1169T, read-out: Drug susceptibility (IC50 value)", "value": 18.1, "unit": "µM"}, {"measurement": "IC50", "setting": "isolate HPG027, HSV-1 TK V204G (611T>G), also pol S914L, A1169AT, read-out: Drug susceptibility (IC50 value)", "value": "> 40", "unit": "µM"}, {"measurement": "IC50", "setting": "isolate HPG027, HSV-1 pol S914L (2741C>T), also TK V204G, pol A1169T, read-out: Drug susceptibility (IC50 value)", "value": "> 40", "unit": "µM"}, {"measurement": "IC50", "setting": "isolate HPG029, HSV-1 TK Y172S (515A>C), read-out: Drug susceptibility (IC50 value)", "value": "> 40", "unit": "µM"}, {"measurement": "IC50", "setting": "isolate HPG031, HSV-1 pol E1120A (3359A>C), also a TK resistance mutation (footnote e), read-out: Drug susceptibility (IC50 value)", "value": 27.7, "unit": "µM"}, {"measurement": "IC50", "setting": "isolate HPG031, HSV-1 pol G139R (415G>C or 415G>A), also a TK resistance mutation (footnote e), read-out: Drug susceptibility (IC50 value)", "value": 27.7, "unit": "µM"}, {"measurement": "IC50", "setting": "isolate HPG032, HSV-1 TK 183* (437_438insA), read-out: Drug susceptibility (IC50 value)", "value": 27.4, "unit": "µM"}, {"measurement": "IC50", "setting": "isolate HPG033, HSV-1 TK I358L (1072A>C), also TK T287M, read-out: Drug susceptibility (IC50 value)", "value": 38.9, "unit": "µM"}, {"measurement": "IC50", "setting": "isolate HPG033, HSV-1 pol N1046T (3137A>C), also TK T287M, pol A1169T, read-out: Drug susceptibility (IC50 value)", "value": 38.9, "unit": "µM"}, {"measurement": "IC50", "setting": "isolate HPG035, HSV-1 pol S239L (716C>T), also pol S724N, read-out: Drug susceptibility (IC50 value)", "value": 5.43, "unit": "µM"}, {"measurement": "IC50", "setting": "isolate HPG037, HSV-1 TK R256W (766C>T), read-out: Drug susceptibility (IC50 value)", "value": 24.8, "unit": "µM"}, {"measurement": "IC50", "setting": "isolate HPG037, HSV-1 TK Y239H (715T>C), read-out: Drug susceptibility (IC50 value)", "value": 24.8, "unit": "µM"}, {"measurement": "IC50", "setting": "isolate HPG039, HSV-1 TK 85* or H58fs (169delC, 170delC, 171delC, or 172delC), read-out: Drug susceptibility (IC50 value)", "value": 25.6, "unit": "µM"}, {"measurement": "IC50", "setting": "isolate HPG040, HSV-1 pol S911N (2732G>A), also TK deletion (C) nt 896-900, pol A1169T, read-out: Drug susceptibility (IC50 value)", "value": "> 40", "unit": "µM"}, {"measurement": "IC50", "setting": "isolate HPG041, HSV-1 pol S911N (2732G>A), also pol A1169T, read-out: Drug susceptibility (IC50 value)", "value": 0.5, "unit": "µM"}, {"measurement": "IC50", "setting": "isolate HPG042, HSV-1 pol A972V (2915C>T), also TK deletion (C) nt 881-885, pol A1169T, read-out: Drug susceptibility (IC50 value)", "value": "> 40", "unit": "µM"}, {"measurement": "IC50", "setting": "isolate HPG042, HSV-1 pol G22R (64G>A), also TK deletion (C) nt 881-885, pol A1169T, read-out: Drug susceptibility (IC50 value)", "value": "> 40", "unit": "µM"}, {"measurement": "IC50", "setting": "isolate HPG043, HSV-1 TK 183* (437_438insA), read-out: Drug susceptibility (IC50 value)", "value": 28.5, "unit": "µM"}, {"measurement": "IC50", "setting": "isolate HPG045, HSV-1 TK L49R (146T>G), read-out: Drug susceptibility (IC50 value)", "value": 31.5, "unit": "µM"}, {"measurement": "IC50", "setting": "isolate HPG045, HSV-1 pol L419I (1255C>A), also TK L49R, pol A1169T, read-out: Drug susceptibility (IC50 value)", "value": 31.5, "unit": "µM"}, {"measurement": "IC50", "setting": "isolate HPG046, HSV-1 TK I166N (497T>A), read-out: Drug susceptibility (IC50 value)", "value": 11.4, "unit": "µM"}, {"measurement": "IC50", "setting": "isolate HPG050, HSV-1 TK Q34* (100C>T), read-out: Drug susceptibility (IC50 value)", "value": "> 40", "unit": "µM"}, {"measurement": "IC50", "setting": "isolate HPG051, HSV-1 pol D83A (248A>C), also TK R176stop, read-out: Drug susceptibility (IC50 value)", "value": 29.2, "unit": "µM"}, {"measurement": "IC50", "setting": "isolate HPG052, HSV-1 TK Q34* (100C>T), read-out: Drug susceptibility (IC50 value)", "value": 8.45, "unit": "µM"}, {"measurement": "IC50", "setting": "isolate HPG053, HSV-1 pol S911N (2732G>A), also TK R176W, pol A1169T, read-out: Drug susceptibility (IC50 value)", "value": "> 40", "unit": "µM"}, {"measurement": "IC50", "setting": "isolate HPG054, HSV-1 pol E992K (2974G>A), also TK insert (G) nt 430-436, pol A1169T, read-out: Drug susceptibility (IC50 value)", "value": 8.25, "unit": "µM"}, {"measurement": "IC50", "setting": "read-out: Drug susceptibility (IC50 value), isolate HPG005, HSV-1 TK A192T (574G>A)", "value": 1.46, "unit": "µM"}, {"measurement": "IC50", "setting": "read-out: Drug susceptibility (IC50 value), isolate HPG006, HSV-1 pol G121S (361G>A), also a TK resistance mutation (footnote a)", "value": "> 40", "unit": "µM"}, {"measurement": "IC50", "setting": "read-out: Drug susceptibility (IC50 value), isolate HPG012, HSV-1 pol G985E (2954G>A), also TK A93V", "value": "> 40", "unit": "µM"}, {"measurement": "IC50", "setting": "read-out: Drug susceptibility (IC50 value), isolate HPG016, HSV-1 pol A1169T (3505G>A)", "value": 3.55, "unit": "µM"}, {"measurement": "IC50", "setting": "read-out: Drug susceptibility (IC50 value), isolate HPG037, HSV-1 TK L69M (205>A), also TK Y239H", "value": 24.8, "unit": "µM"}, {"measurement": "IC50", "setting": "read-out: Drug susceptibility (IC50 value), isolate HPG042, HSV-1 TK frameshift (881delC to 885delC)", "value": "> 40", "unit": "µM"}, {"measurement": "IC50", "setting": "read-out: Drug susceptibility (IC50 value), isolate HPG047, HSV-1 pol E680 (2039A>C), also TK deletion (C) nt 548-553, pol A1169T", "value": 22.4, "unit": "µM"}]}
